Test results published in US20230181474A1, “TABLET COMPRISING OPICAPONE” (Ono Pharmaceutical Co., Ltd., priority 2020, published 2023).

Assay: Evaluation of particle size by dynamic particle image analysis (iSpect DIA-10)
Format: physicochemical
Details: dispersion medium 10% polysorbate 20 aqueous solution
Source text: In the present specification, “maximum length” refers to a maximum length between two points on a contour of a particle, and this may be measured by the dynamic image analysis method. An example of the equipment used for measurement is the dynamic particle image analysis system iSpect DIA-10 (Shimadzu Corporation). In the present invention, the maximum length of particles of opicapone or a pharmaceutically acceptable salt thereof in terms of D50 value is less than 46 µm, preferably 45 µm or less, more preferably 40 µm or less, even more preferably 35 µm or less, and particularly preferably 30 µm or less or 29 µm or less. In the present invention, the maximum length of particles of opicapone or a pharmaceutically acceptable salt thereof in terms of D90 value is, for example, less than 111 µm, preferably 110 µm or less, more preferably 100 µm or less, even more preferably 90 µm or less, and particularly preferably 80 µm or less.
In the present specification, “equivalent circle diameter” refers to the diameter of a circle that has the same area as the projected area of a particle image, and this may be measured by the dynamic image analysis method. An example of the equipment used for measurement is the dynamic particle image analysis system iSpect DIA-10 (Shimadzu Corporation).
The particle sizes of the non-micronized product and the micronized products A1 to A4 prepared in Example 1 using the opicapone drug substance were measured under the following conditions.
• Measurement equipment: Dynamic particle image analysis system iSpect DIA-10 (Shimadzu Corporation) • Evaluation items: Equivalent circle diameter, maximum length • Dispersion medium: 10% polysorbate 20 aqueous solution • Sample: Approximately 10 mg of the measurement sample was placed in 1 ml of the dispersion medium, suspended, and then diluted 100-fold.
In the case of `Cc1nc(Cl)c(-c2noc(-c3cc(O)c(O)c([N+](=O)[O-])c3)n2)c(C)c1Cl` [Non-micronized Product], the “Equivalent Circle Diameter D10” value is reported as 6 µm, the “Equivalent Circle Diameter D50” value is reported as 13 µm and the “Equivalent Circle Diameter D90” value is reported as 23 µm. For the same compound, the “Maximum Length D10” value was 16 µm and the “Maximum Length D90” value was 111 µm.
In the case of `Cc1nc(Cl)c(-c2noc(-c3cc(O)c(O)c([N+](=O)[O-])c3)n2)c(C)c1Cl` [Micronized Product A3], the “Equivalent Circle Diameter D10” value is reported as 7 µm, the “Equivalent Circle Diameter D50” value is reported as 11 µm and the “Equivalent Circle Diameter D90” value is reported as 19 µm. The “Maximum Length D10” value was 15 µm and the “Maximum Length D90” value was 73 µm.
For `Cc1nc(Cl)c(-c2noc(-c3cc(O)c(O)c([N+](=O)[O-])c3)n2)c(C)c1Cl` [Micronized Product A 1], the “Equivalent Circle Diameter D10” value was 7 µm, the “Equivalent Circle Diameter D50” value was 11 µm and the “Maximum Length D10” value was 16 µm. The “Maximum Length D50” value was 28 µm and the “Maximum Length D90” value was 63 µm.
For `Cc1nc(Cl)c(-c2noc(-c3cc(O)c(O)c([N+](=O)[O-])c3)n2)c(C)c1Cl` [Micronized Product A2], the “Equivalent Circle Diameter D10” value was 7 µm, the “Equivalent Circle Diameter D50” value was 11 µm and the “Equivalent Circle Diameter D90” value was 18 µm. The “Maximum Length D10” value was 16 µm, the “Maximum Length D50” value was 26 µm and the “Maximum Length D90” value was 60 µm.
